What was measured:
Test in all cases: relative viability (nuclei count vs DMSO), 5 days (fraction); higher = more cells survive
[1] = compound: O=C(O)c1ccc2c(c1)nc(Nc1cccc(Cl)c1)c1ccncc12 [Silmitasertib] + C[C@@H](Oc1cc(-c2cnn(C3CCNCC3)c2)cnc1N)c1c(Cl)ccc(F)c1Cl [Crizotinib] (partner 1 µM)
Procedure, shortened: (§1)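 After 5 days of treatment, lung cancer cells in 1536-well plates were fixed and stained in a single step (final 0.05% Triton X-100, 1% formaldehyde, 1 ug/ml Hoechst) and their nuclei counted on 4× images. Treatment had been applied by pin tool the day after seeding as one drug alone or as a fixed anchor-drug dose with five library-drug doses (not always all listed) in √10 steps. Relative viability is the nuclei count of treated wells divided by that of vehicle wells, and values are medians of duplicate plates.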

[2] = compound: O=C(O)c1ccc2c(c1)nc(Nc1cccc(Cl)c1)c1ccncc12 [Silmitasertib] + Nc1ncn([C@H]2C[C@H](O)[C@@H](CO)O2)c(=O)n1 [Decitabine] (partner 2 µM)
Procedure, shortened: as §1

[3] = compound: O=C(O)c1ccc2c(c1)nc(Nc1cccc(Cl)c1)c1ccncc12 [Silmitasertib] + COc1cc2c(Oc3ccc(NC(=O)C4(C(=O)Nc5ccc(F)cc5)CC4)cc3F)ccnc2cc1OCCCN1CCOCC1 [Foretinib] (partner 0.25 µM)
Procedure, shortened: as §1

[4] = compound: O=C(O)c1ccc2c(c1)nc(Nc1cccc(Cl)c1)c1ccncc12 [Silmitasertib] + N=C(N)NC(=N)NCCc1ccccc1 [Phenformin] (partner 250 µM)
Procedure, shortened: as §1

[5] = compound: O=C(O)c1ccc2c(c1)nc(Nc1cccc(Cl)c1)c1ccncc12 [Silmitasertib] + CS(=O)(=O)CCNCc1ccc(-c2ccc3ncnc(Nc4ccc(OCc5cccc(F)c5)c(Cl)c4)c3c2)o1 [Lapatinib] (partner 2 µM)
Procedure, shortened: as §1

[6] = compound: O=C(O)c1ccc2c(c1)nc(Nc1cccc(Cl)c1)c1ccncc12 [Silmitasertib] + CS(=O)(=O)N1CCN(Cc2cc3nc(-c4cccc5[nH]ncc45)nc(N4CCOCC4)c3s2)CC1 [Pictilisib] (partner 1 µM)
Procedure, shortened: as §1

[7] = compound: O=C(O)c1ccc2c(c1)nc(Nc1cccc(Cl)c1)c1ccncc12 [Silmitasertib] + CC1(C)CCC(c2ccc(Cl)cc2)=C(CN2CCN(c3ccc(C(=O)NS(=O)(=O)c4ccc(N[C@H](CCN5CCOCC5)CSc5ccccc5)c(S(=O)(=O)C(F)(F)F)c4)cc3)CC2)C1 [Navitoclax] (partner 0.5 µM)
Procedure, shortened: as §1

[8] = compound: O=C(O)c1ccc2c(c1)nc(Nc1cccc(Cl)c1)c1ccncc12 [Silmitasertib] + C[C@]1(O)C[C@@H](c2nc(-c3ccc4ccc(-c5ccccc5)nc4c3)c3c(N)nccn32)C1 [Linsitinib] (partner 1 µM)
Procedure, shortened: as §1

[9] = compound: O=C(O)c1ccc2c(c1)nc(Nc1cccc(Cl)c1)c1ccncc12 [Silmitasertib] + Cc1nc(NC(=O)N2CCC[C@H]2C(N)=O)sc1-c1ccnc(C(C)(C)C(F)(F)F)c1 [Alpelisib] (partner 2 µM)
Procedure, shortened: as §1

Silmitasertib + Olaparib = compound: O=C(O)c1ccc2c(c1)nc(Nc1cccc(Cl)c1)c1ccncc12 [Silmitasertib] + O=C(c1cc(Cc2n[nH]c(=O)c3ccccc23)ccc1F)N1CCN(C(=O)C2CC2)CC1 [Olaparib] (partner 8 µM)
Procedure, shortened: as §1

Silmitasertib = compound: O=C(O)c1ccc2c(c1)nc(Nc1cccc(Cl)c1)c1ccncc12 [Silmitasertib]
Procedure, shortened: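 Five library-drug doses spaced by √10 were pinned onto vehicle-anchored 1536-well plates of lung cancer cell lines that had been kept overnight at 37 °C. Cells went 5 days without medium change, then were fixed, permeabilised and Hoechst-stained together, imaged at 4× and counted by MetaXpress. Viability is the ratio of treated-well to vehicle-well nuclei, taken as a median over plates. Plates required control CV below 25% and at least one doubling.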

[10] = compound: O=C(O)c1ccc2c(c1)nc(Nc1cccc(Cl)c1)c1ccncc12 [Silmitasertib] + CC(C)C[C@H](NC(=O)[C@H](Cc1ccccc1)NC(=O)c1cnccn1)B(O)O [Bortezomib] (partner 0.002 µM)
Procedure, shortened: as §1

## A549
[1]; first compound 0.04 µM
  relative viability: 0.819
[1]; first compound 0.4 µM
  relative viability: 0.677
[1]; first compound 1.265 µM
  relative viability: 0.777
[1]; first compound 4 µM
  relative viability: 0.748
[2]; first compound 0.04 µM
  relative viability: 0.244
[2]; first compound 1.265 µM
  relative viability: 0.27
[2]; first compound 4 µM
  relative viability: 0.158
[3]; first compound 0.04 µM
  relative viability: 0.961
[3]; first compound 0.4 µM
  relative viability: 0.819
[3]; first compound 1.265 µM
  relative viability: 0.952
[3]; first compound 4 µM
  relative viability: 0.858
[4]; first compound 0.04 µM
  relative viability: 0.237
[4]; first compound 0.4 µM
  relative viability: 0.131
[4]; first compound 1.265 µM
  relative viability: 0.121
[4]; first compound 4 µM
  relative viability: 0.161
[5]; first compound 0.04 µM
  relative viability: 1.23
[5]; first compound 0.4 µM
  relative viability: 1.08
[5]; first compound 1.265 µM
  relative viability: 0.781
[5]; first compound 4 µM
  relative viability: 0.736
[6]; first compound 0.04 µM
  relative viability: 0.582
[6]; first compound 0.4 µM
  relative viability: 0.566
[6]; first compound 1.265 µM
  relative viability: 0.497
[6]; first compound 4 µM
  relative viability: 0.513
[7]; first compound 0.04 µM
  relative viability: 1.44
[7]; first compound 0.4 µM
  relative viability: 1.16
[7]; first compound 1.265 µM
  relative viability: 1.27
[7]; first compound 4 µM
  relative viability: 1.04
[8]; first compound 0.04 µM
  relative viability: 0.792
[8]; first compound 1.265 µM
  relative viability: 0.507
[8]; first compound 4 µM
  relative viability: 0.678
[9]; first compound 0.04 µM
  relative viability: 1.02
[9]; first compound 0.4 µM
  relative viability: 0.918
[9]; first compound 1.265 µM
  relative viability: 0.828
[9]; first compound 4 µM
  relative viability: 0.869
Silmitasertib + Olaparib; first compound 0.04 µM
  relative viability: 0.301
Silmitasertib + Olaparib; first compound 1.265 µM
  relative viability: 0.273
Silmitasertib + Olaparib; first compound 4 µM
  relative viability: 0.12
Silmitasertib; 0.04 µM
  relative viability: 1.03
Silmitasertib; 0.4 µM
  relative viability: 0.994
Silmitasertib; 1.265 µM
  relative viability: 1
Silmitasertib; 4 µM
  relative viability: 0.882

## Calu-6
[1]; first compound 0.04 µM
  relative viability: 0.915
[1]; first compound 0.4 µM
  relative viability: 0.721
[1]; first compound 1.265 µM
  relative viability: 0.727
[1]; first compound 4 µM
  relative viability: 0.527
[3]; first compound 0.04 µM
  relative viability: 0.963
[3]; first compound 0.4 µM
  relative viability: 0.83
[3]; first compound 1.265 µM
  relative viability: 0.846
[3]; first compound 4 µM
  relative viability: 0.616
[5]; first compound 0.04 µM
  relative viability: 1.13
[5]; first compound 0.4 µM
  relative viability: 0.945
[5]; first compound 1.265 µM
  relative viability: 0.761
[5]; first compound 4 µM
  relative viability: 0.51
[6]; first compound 0.04 µM
  relative viability: 0.99
[6]; first compound 0.4 µM
  relative viability: 0.934
[6]; first compound 1.265 µM
  relative viability: 0.628
[6]; first compound 4 µM
  relative viability: 0.359
[7]; first compound 0.04 µM
  relative viability: 1
[7]; first compound 0.4 µM
  relative viability: 0.783
[7]; first compound 1.265 µM
  relative viability: 0.661
[7]; first compound 4 µM
  relative viability: 0.374
[8]; first compound 0.04 µM
  relative viability: 1.04
[8]; first compound 0.4 µM
  relative viability: 0.862
[8]; first compound 1.265 µM
  relative viability: 0.878
[8]; first compound 4 µM
  relative viability: 0.49
[9]; first compound 0.04 µM
  relative viability: 0.984
[9]; first compound 0.4 µM
  relative viability: 0.938
[9]; first compound 1.265 µM
  relative viability: 0.755
[9]; first compound 4 µM
  relative viability: 0.571
[10]; first compound 0.04 µM
  relative viability: 1.13
[10]; first compound 0.4 µM
  relative viability: 0.868
[10]; first compound 1.265 µM
  relative viability: 0.824
[10]; first compound 4 µM
  relative viability: 0.602
Silmitasertib + Olaparib; first compound 0.04 µM
  relative viability: 0.654
Silmitasertib + Olaparib; first compound 0.4 µM
  relative viability: 0.28
Silmitasertib + Olaparib; first compound 1.265 µM
  relative viability: 0.445
Silmitasertib + Olaparib; first compound 4 µM
  relative viability: 0.39
Silmitasertib; 0.04 µM
  relative viability: 1.14
Silmitasertib; 0.4 µM
  relative viability: 0.898
Silmitasertib; 1.265 µM
  relative viability: 0.885
Silmitasertib; 4 µM
  relative viability: 0.663

## EBC-1
[1]; first compound 0.04 µM
  relative viability: 0.189
[1]; first compound 0.4 µM
  relative viability: 0.16
[1]; first compound 1.265 µM
  relative viability: 0.171
[1]; first compound 4 µM
  relative viability: 0.157
[3]; first compound 0.04 µM
  relative viability: 0.0961
[3]; first compound 0.4 µM
  relative viability: 0.0977
[3]; first compound 1.265 µM
  relative viability: 0.0913
[3]; first compound 4 µM
  relative viability: 0.0847
[5]; first compound 0.04 µM
  relative viability: 0.225
[5]; first compound 0.4 µM
  relative viability: 0.185
[5]; first compound 1.265 µM
  relative viability: 0.2
[5]; first compound 4 µM
  relative viability: 0.192
[6]; first compound 0.04 µM
  relative viability: 0.534
[6]; first compound 0.4 µM
  relative viability: 0.375
[6]; first compound 1.265 µM
  relative viability: 0.178
[6]; first compound 4 µM
  relative viability: 0.139
[7]; first compound 0.04 µM
  relative viability: 0.542
[7]; first compound 0.4 µM
  relative viability: 0.154
[7]; first compound 1.265 µM
  relative viability: 0.134
[7]; first compound 4 µM
  relative viability: 0.168
[8]; first compound 0.04 µM
  relative viability: 0.982
[8]; first compound 0.4 µM
  relative viability: 0.655
[8]; first compound 1.265 µM
  relative viability: 0.471
[8]; first compound 4 µM
  relative viability: 0.222
[9]; first compound 0.04 µM
  relative viability: 0.925
[9]; first compound 0.4 µM
  relative viability: 0.601
[9]; first compound 1.265 µM
  relative viability: 0.262
[9]; first compound 4 µM
  relative viability: 0.211
[10]; first compound 0.04 µM
  relative viability: 0.652
[10]; first compound 0.4 µM
  relative viability: 0.39
[10]; first compound 1.265 µM
  relative viability: 0.347
[10]; first compound 4 µM
  relative viability: 0.239
Silmitasertib + Olaparib; first compound 0.04 µM
  relative viability: 0.796
Silmitasertib + Olaparib; first compound 0.4 µM
  relative viability: 0.371
Silmitasertib + Olaparib; first compound 1.265 µM
  relative viability: 0.423
Silmitasertib + Olaparib; first compound 4 µM
  relative viability: 0.212
Silmitasertib; 0.04 µM
  relative viability: 1.09
Silmitasertib; 0.4 µM
  relative viability: 0.693
Silmitasertib; 1.265 µM
  relative viability: 0.591
Silmitasertib; 4 µM
  relative viability: 0.29

## NCI-H1299
[1]; first compound 0.04 µM
  relative viability: 0.956
[1]; first compound 0.4 µM
  relative viability: 0.99
[1]; first compound 1.265 µM
  relative viability: 0.994
[1]; first compound 4 µM
  relative viability: 0.764
[3]; first compound 0.04 µM
  relative viability: 1.19
[3]; first compound 0.4 µM
  relative viability: 1.08
[3]; first compound 1.265 µM
  relative viability: 1.02
[3]; first compound 4 µM
  relative viability: 1.13
[5]; first compound 0.04 µM
  relative viability: 0.989
[5]; first compound 0.4 µM
  relative viability: 0.949
[5]; first compound 1.265 µM
  relative viability: 0.894
[5]; first compound 4 µM
  relative viability: 0.804
[6]; first compound 0.04 µM
  relative viability: 1.07
[6]; first compound 0.4 µM
  relative viability: 0.559
[6]; first compound 1.265 µM
  relative viability: 0.343
[6]; first compound 4 µM
  relative viability: 0.277
[7]; first compound 0.04 µM
  relative viability: 1.1
[7]; first compound 0.4 µM
  relative viability: 1.02
[7]; first compound 1.265 µM
  relative viability: 1.06
[7]; first compound 4 µM
  relative viability: 1.05
[8]; first compound 0.04 µM
  relative viability: 0.96
[8]; first compound 0.4 µM
  relative viability: 1.01
[8]; first compound 1.265 µM
  relative viability: 0.901
[8]; first compound 4 µM
  relative viability: 0.587
[9]; first compound 0.04 µM
  relative viability: 1.08
[9]; first compound 0.4 µM
  relative viability: 1.04
[9]; first compound 1.265 µM
  relative viability: 1.02
[9]; first compound 4 µM
  relative viability: 0.826
[10]; first compound 0.04 µM
  relative viability: 1.08
[10]; first compound 0.4 µM
  relative viability: 1.01
[10]; first compound 1.265 µM
  relative viability: 0.988
[10]; first compound 4 µM
  relative viability: 1.04
Silmitasertib + Olaparib; first compound 0.04 µM
  relative viability: 0.946
Silmitasertib + Olaparib; first compound 0.4 µM
  relative viability: 1.02
Silmitasertib + Olaparib; first compound 1.265 µM
  relative viability: 0.872
Silmitasertib + Olaparib; first compound 4 µM
  relative viability: 0.803
Silmitasertib; 0.04 µM
  relative viability: 1.05
Silmitasertib; 0.4 µM
  relative viability: 1.03
Silmitasertib; 1.265 µM
  relative viability: 0.945
Silmitasertib; 4 µM
  relative viability: 0.834

From the supplement of paper PMC10307832
